Where a name gives a salt, the structure may show the parent alone.
Tests used:
[1] = target: PI3Kδ (p110δ/p85α) Recombinant Human Protein (Homo sapiens (Human), UniProt O00329); assay: PI3Kδ scintillation proximity assay; type: biochemical; details: 20 μM PIP2, 2 μM ATP, 3.4 nM PI3Kδ, 120 min, room temperature; read-out: PI3Kδ IC50
In short: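 Recombinant human p110δ/p85α was run at room temperature in 20 mM MOPS pH 6.7, 10 mM MgCl2, 5 mM DTT, 0.03% CHAPS, 2% DMSO. Substrates were 20 µM PIP2 and 2 µM ATP with [γ-33P]ATP. Product was captured overnight on WGA SPA beads and counted by scintillation; IC50 fitted from percent of solvent control versus log concentration.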

[2] = target: PI3Kγ (p110γ) Recombinant Human Protein (Homo sapiens (Human), UniProt P48736); assay: PI3K-γ scintillation proximity assay; type: biochemical; details: 20 μM PIP2, 2 μM ATP, 13 nM PI3Kγ, 120 min, room temperature
In short: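 Radiometric SPA in 20 mM MOPS pH 6.7, 10 mM MgCl2, 5 mM DTT, 0.03% CHAPS, 2% DMSO. Stopped with EDTA and WGA SPA beads for scintillation counting. IC50 fitted from % solvent-control activity versus log concentration.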

[3] = tested on: Phosphorylated Ribosomal Protein S6 (RPS6) in THP-1 cells; assay: THP-1 RPS6 ELISA assay; type: cell-based, Human; details: Homo sapiens, THP-1, THP-1 cells, serum starved, 2 h compound, 10 nM MCP-1 for 15 min, phospho-RPS6 ELISA; read-out: PI3Kγ_THP1_RPS6_ELISA IC50
In short: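 Phospho-RPS6 in lysates measured by ELISA at 450 nm, corrected at 540 nm, after MCP-1 challenge (10 nM, 15 min) of THP-1 cells that were starved overnight and exposed to test compound for 2 h at 37° C, 2×10^5 cells/well. Curve fit of percent inhibition gives IC50.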

Chain of PI3Kγ (p110γ) Recombinant Human Protein (P48736 whole entry): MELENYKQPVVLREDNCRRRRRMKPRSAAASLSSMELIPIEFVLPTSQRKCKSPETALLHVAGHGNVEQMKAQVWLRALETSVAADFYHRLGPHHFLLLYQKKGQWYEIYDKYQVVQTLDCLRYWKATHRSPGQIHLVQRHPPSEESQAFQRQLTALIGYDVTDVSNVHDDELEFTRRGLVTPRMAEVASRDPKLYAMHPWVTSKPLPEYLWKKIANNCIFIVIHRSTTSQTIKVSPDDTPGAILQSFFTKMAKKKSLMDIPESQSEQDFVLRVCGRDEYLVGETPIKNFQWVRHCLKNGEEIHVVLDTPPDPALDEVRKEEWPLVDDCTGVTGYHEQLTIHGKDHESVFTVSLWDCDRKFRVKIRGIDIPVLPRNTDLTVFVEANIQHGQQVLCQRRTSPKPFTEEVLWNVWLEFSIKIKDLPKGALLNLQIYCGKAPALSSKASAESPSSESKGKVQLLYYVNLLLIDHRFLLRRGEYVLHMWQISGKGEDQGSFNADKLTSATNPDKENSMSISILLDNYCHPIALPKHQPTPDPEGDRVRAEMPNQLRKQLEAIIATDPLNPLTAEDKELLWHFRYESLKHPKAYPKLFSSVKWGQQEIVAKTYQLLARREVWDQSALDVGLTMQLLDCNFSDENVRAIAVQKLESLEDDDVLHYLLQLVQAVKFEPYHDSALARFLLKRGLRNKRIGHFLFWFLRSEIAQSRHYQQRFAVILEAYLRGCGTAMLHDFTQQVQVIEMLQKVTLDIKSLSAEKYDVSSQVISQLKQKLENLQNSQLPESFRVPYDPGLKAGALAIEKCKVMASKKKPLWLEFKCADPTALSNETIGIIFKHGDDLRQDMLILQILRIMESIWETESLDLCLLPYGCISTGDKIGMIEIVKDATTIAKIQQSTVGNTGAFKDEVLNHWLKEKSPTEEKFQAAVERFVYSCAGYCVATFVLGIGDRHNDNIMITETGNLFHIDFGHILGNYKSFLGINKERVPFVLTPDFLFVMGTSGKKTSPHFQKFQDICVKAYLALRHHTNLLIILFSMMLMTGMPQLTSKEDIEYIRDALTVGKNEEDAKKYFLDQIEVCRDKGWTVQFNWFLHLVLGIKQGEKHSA
Chain of PI3Kδ (p110δ/p85α) Recombinant Human Protein (O00329 whole entry): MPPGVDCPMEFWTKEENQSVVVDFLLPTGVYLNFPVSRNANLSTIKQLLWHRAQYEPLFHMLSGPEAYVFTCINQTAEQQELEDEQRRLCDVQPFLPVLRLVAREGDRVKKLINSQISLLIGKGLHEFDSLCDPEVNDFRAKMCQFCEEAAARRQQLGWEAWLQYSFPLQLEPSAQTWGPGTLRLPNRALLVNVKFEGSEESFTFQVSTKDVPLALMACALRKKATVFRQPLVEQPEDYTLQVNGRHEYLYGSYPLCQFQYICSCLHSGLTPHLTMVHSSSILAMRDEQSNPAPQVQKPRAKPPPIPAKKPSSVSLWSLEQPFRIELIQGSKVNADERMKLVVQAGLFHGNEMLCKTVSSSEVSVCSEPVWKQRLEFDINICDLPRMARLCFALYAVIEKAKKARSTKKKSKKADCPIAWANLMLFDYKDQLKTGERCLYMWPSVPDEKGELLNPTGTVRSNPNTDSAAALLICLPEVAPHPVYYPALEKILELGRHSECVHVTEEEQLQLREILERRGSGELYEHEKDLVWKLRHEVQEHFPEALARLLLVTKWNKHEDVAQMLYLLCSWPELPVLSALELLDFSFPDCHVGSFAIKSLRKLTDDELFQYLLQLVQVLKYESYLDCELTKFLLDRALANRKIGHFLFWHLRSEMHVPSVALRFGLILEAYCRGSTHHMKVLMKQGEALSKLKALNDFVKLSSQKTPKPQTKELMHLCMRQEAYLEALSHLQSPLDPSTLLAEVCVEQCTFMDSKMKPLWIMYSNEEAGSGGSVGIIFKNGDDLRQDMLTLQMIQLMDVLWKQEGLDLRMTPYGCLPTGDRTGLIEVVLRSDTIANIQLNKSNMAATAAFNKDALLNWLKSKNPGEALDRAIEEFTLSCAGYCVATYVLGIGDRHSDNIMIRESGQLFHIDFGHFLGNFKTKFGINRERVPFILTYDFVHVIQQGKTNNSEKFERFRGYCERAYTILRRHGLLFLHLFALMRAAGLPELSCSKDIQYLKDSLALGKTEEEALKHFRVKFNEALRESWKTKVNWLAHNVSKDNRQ
Chain of PI3Kδ (p110δ/p85α) Recombinant Human Protein (P27986 whole entry partner): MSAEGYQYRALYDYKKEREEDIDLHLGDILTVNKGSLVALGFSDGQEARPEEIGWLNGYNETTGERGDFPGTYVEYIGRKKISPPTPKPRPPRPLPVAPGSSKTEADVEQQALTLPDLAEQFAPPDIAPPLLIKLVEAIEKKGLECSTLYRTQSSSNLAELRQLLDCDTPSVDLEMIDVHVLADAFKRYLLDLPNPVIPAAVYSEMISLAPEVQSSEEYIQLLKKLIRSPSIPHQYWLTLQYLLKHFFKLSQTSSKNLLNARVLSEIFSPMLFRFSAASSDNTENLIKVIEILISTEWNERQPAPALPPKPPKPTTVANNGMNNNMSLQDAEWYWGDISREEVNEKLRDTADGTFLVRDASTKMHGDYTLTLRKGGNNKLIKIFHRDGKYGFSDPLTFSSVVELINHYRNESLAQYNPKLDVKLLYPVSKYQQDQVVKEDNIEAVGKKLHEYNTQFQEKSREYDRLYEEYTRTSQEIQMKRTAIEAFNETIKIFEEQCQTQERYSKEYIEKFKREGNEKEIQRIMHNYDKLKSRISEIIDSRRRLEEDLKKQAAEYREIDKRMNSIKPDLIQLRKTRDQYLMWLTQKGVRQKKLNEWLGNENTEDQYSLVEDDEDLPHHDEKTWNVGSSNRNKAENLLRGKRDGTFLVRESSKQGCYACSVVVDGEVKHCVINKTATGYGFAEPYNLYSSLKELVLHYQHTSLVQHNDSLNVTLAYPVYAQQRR

SMILES	IC50 [1]	IC50 [2]	IC50 [3]
Cc1cc(CNC(=O)c2cn3c(-c4cc(C(C)(O)C(F)(F)F)ccc4C)cnc3c(N)n2)on1 (stereo not drawn) [Example 22, 8-Amino-3-(2-methyl-5-(1,1,1-trifluoro-2-hydroxypropan-2-yl)phenyl)-N-((3-methylisoxazol-5-yl)methyl)imidazo[1,2-a]pyrazine-6-carboxamide, TFA]	< 100 nM	< 100 nM	100 to 500 nM
Cc1ccc(C(O)C(F)(F)F)cc1-c1cnc2c(N)nc(C(F)(F)F)cn12 (stereo not drawn) [Example 23, 1-(3-(8-Amino-6-(trifluoromethyl)imidazo[1,2-a]pyrazin-3-yl)-4-methylphenyl)-2,2,2-trifluoroethan-1-ol trifluoroacetate salt]	500 to 2000 nM	< 100 nM	500 to 1000 nM
Cc1ncc(-c2cn3c(-c4cc(C(C)(O)C(F)F)ccc4C)cnc3c(N)n2)o1 (stereo not drawn) [Example 28, 2-(3-(8-Amino-6-(2-methyloxazol-5-yl)imidazo[1,2-a]pyrazin-3-yl)-4-methylphenyl)-1,1-difluoropropan-2-ol]	< 100 nM	< 100 nM	100 to 500 nM
Cc1ccc(C(C)(O)C(F)F)cc1-c1cnc2c(N)nc(-c3cc(C(N)=O)ccc3F)cn12 (stereo not drawn) [Example 31, 3-(8-Amino-3-(5-(1,1-difluoro-2-hydroxypropan-2-yl)-2-methylphenyl)imidazo[1,2-a]pyrazin-6-yl)-4-fluorobenzamide]	100 to 500 nM	< 100 nM	100 to 500 nM
COc1ncccc1-c1cn2c(-c3cc(C(C)(O)C(F)F)ccc3C)cnc2c(N)n1 (stereo not drawn) [Example 33, 2-(3-(8-Amino-6-(2-methoxypyridin-3-yl)imidazo[1,2-a]pyrazin-3-yl)-4-methylphenyl)-1,1-difluoropropan-2-ol]	100 to 500 nM	< 100 nM	< 100 nM
Cc1ncc(-c2cn3c(-c4cc(C(C)(O)C(F)F)ccc4C)cnc3c(N)n2)s1 (stereo not drawn) [Example 34, 2-(3-(8-Amino-6-(2-methylthiazol-5-yl)imidazo[1,2-a]pyrazin-3-yl)-4-methylphenyl)-1,1-difluoropropan-2-ol]	< 100 nM	< 100 nM	100 to 500 nM
Cc1ccc(C(C)(O)C(F)F)cc1-c1cnc2c(N)nc(-c3ccnc(C)c3F)cn12 (stereo not drawn) [Example 35, 2-(3-(8-Amino-6-(3-fluoro-2-methylpyridin-4-yl)imidazo[1,2-a]pyrazin-3-yl)-4-methylphenyl)-1,1-difluoropropan-2-ol]	< 100 nM	< 100 nM	< 100 nM
Cc1ccc(C(C)(O)C(F)F)cc1-c1cnc2c(N)nc(-c3cnn(C)c3)cn12 (stereo not drawn) [Example 37, 2-(3-(8-Amino-6-(1-methyl-1H-pyrazol-4-yl)imidazo[1,2-a]pyrazin-3-yl)-4-methylphenyl)-1,1-difluoropropan-2-ol]	< 100 nM	< 100 nM	< 100 nM
Cc1ccc(C(C)(O)C(F)F)cc1-c1cnc2c(N)nc(-c3c(C)n[nH]c3C)cn12 (stereo not drawn) [Example 39, 2-(3-(8-Amino-6-(3,5-dimethyl-1H-pyrazol-4-yl)imidazo[1,2-a]pyrazin-3-yl)-4-methylphenyl)-1,1-difluoropropan-2-ol]	< 100 nM	< 100 nM	< 100 nM
Cc1ccc(C(C)(O)C(F)F)cc1-c1cnc2c(N)nc(-c3cn[nH]c3)cn12 (stereo not drawn) [Example 40, 2-(3-(8-Amino-6-(1H-pyrazol-4-yl)imidazo[1,2-a]pyrazin-3-yl)-4-methylphenyl)-1,1-difluoropropan-2-ol]	< 100 nM	< 100 nM	100 to 500 nM
Cc1cc(-c2cn3c(-c4cc(C(C)(O)C(F)F)ccc4C)cnc3c(N)n2)on1 (stereo not drawn) [Example 48, 2-(3-(8-Amino-6-(3-methylisoxazol-5-yl)imidazo[1,2-a]pyrazin-3-yl)-4-methylphenyl)-1,1-difluoropropan-2-ol trifluoroacetate]	100 to 500 nM	< 100 nM	100 to 500 nM
CCC(O)(c1ccc(C)c(-c2cnc3c(N)nc(-c4ccnn4C)cn23)c1)C(F)F (stereo not drawn) [Example 50, 2-(3-(8-Amino-6-(1-methyl-1H-pyrazol-5-yl)imidazo[1,2-a]pyrazin-3-yl)-4-methylphenyl)-1,1-difluorobutan-2-ol trifluoroacetate]	100 to 500 nM	< 100 nM	100 to 500 nM
Cc1ccc(C(C)(O)C(F)F)cc1-c1cnc2c(N)nc(C3CC3C(=O)NC(C)(C)CO)cn12 (stereo not drawn) [Example 78, 2-(8-Amino-3-(5-(1,1-difluoro-2-hydroxypropan-2-yl)-2-methylphenyl)imidazo[1,2-a]pyrazin-6-yl)-N-(1-hydroxy-2-methylpropan-2-yl)cyclopropane-1-carboxamide]	100 to 500 nM	< 100 nM	100 to 500 nM
Cc1ccc(C(O)(C(N)=O)C(F)(F)F)cc1-c1cnc2c(N)nc(C(F)(F)F)cn12 (stereo not drawn) [Example 82, 2-(3-(8-Amino-6-(trifluoromethyl)imidazo[1,2-a]pyrazin-3-yl)-4-methylphenyl)-3,3,3-trifluoro-2-hydroxypropanamide]	< 100 nM	< 100 nM	< 100 nM

Other lines, results leading:

IC50 [1]	IC50 [2]	IC50 [3]	SMILES
< 100 nM	< 100 nM	100 to 500 nM	Cc1ccc(C(C)(O)C(F)F)cc1-c1cnc2c(N)nc(-c3cnn(C)c3C)cn12 (stereo not drawn) [Example 36, 2-(3-(8-Amino-6-(1,5-dimethyl-1H-pyrazol-4-yl)imidazo[1,2-a]pyrazin-3-yl)-4-methylphenyl)-1,1-difluoropropan-2-ol]
< 100 nM	< 100 nM	< 100 nM	Cc1ccc(C(C)(O)C(F)F)cc1-c1cnc2c(N)nc(-c3cn(C)nc3C)cn12 (stereo not drawn) [Example 38, 2-(3-(8-Amino-6-(1,3-dimethyl-1H-pyrazol-4-yl)imidazo[1,2-a]pyrazin-3-yl)-4-methylphenyl)-1,1-difluoropropan-2-ol]
100 to 500 nM	< 100 nM	100 to 500 nM	Cc1cc(-c2cn3c(-c4cc(C(C)(O)C(F)F)ccc4C)cnc3c(N)n2)n(C)n1 (stereo not drawn) [Example 41, 2-(3-(8-Amino-6-(1,3-dimethyl-1H-pyrazol-5-yl)imidazo[1,2-a]pyrazin-3-yl)-4-methylphenyl)-1,1-difluoropropan-2-ol]
100 to 500 nM	< 100 nM	100 to 500 nM	Cc1ccc(C(C)(O)C(F)F)cc1-c1cnc2c(N)nc(-c3c(C)cnn3C)cn12 (stereo not drawn) [Example 42, 2-(3-(8-Amino-6-(1,4-dimethyl-1H-pyrazol-5-yl)imidazo[1,2-a]pyrazin-3-yl)-4-methylphenyl)-1,1-difluoropropan-2-ol]
100 to 500 nM	< 100 nM	500 to 1000 nM	Cc1ccc(C(C)(O)C(F)F)cc1-c1cnc2c(N)nc(-c3ccn(C)n3)cn12 (stereo not drawn) [Example 43, 2-(3-(8-Amino-6-(1-methyl-1H-pyrazol-3-yl)imidazo[1,2-a]pyrazin-3-yl)-4-methylphenyl)-1,1-difluoropropan-2-ol]
100 to 500 nM	< 100 nM	< 100 nM	Cc1ccc(C(C)(O)C(F)F)cc1-c1cnc2c(N)nc(-c3ccc(CO)nc3)cn12 (stereo not drawn) [Example 46, 2-(3-(8-Amino-6-(6-(hydroxymethyl)pyridin-3-yl)imidazo[1,2-a]pyrazin-3-yl)-4-methylphenyl)-1,1-difluoropropan-2-ol trifluoroacetate]
100 to 500 nM	< 100 nM	100 to 500 nM	Cc1ccc(C(C)(O)C(F)F)cc1-c1cnc2c(N)nc(-n3cncn3)cn12 (stereo not drawn) [Example 49, 2-(3-(8-Amino-6-(1H-1,2,4-triazol-1-yl)imidazo[1,2-a]pyrazin-3-yl)-4-methylphenyl)-1,1-difluoropropan-2-ol]
100 to 500 nM	< 100 nM	100 to 500 nM	Cc1ccc(C2(O)CCCC2F)cc1-c1cnc2c(N)nc(C(F)(F)F)cn12 (stereo not drawn) [Example 61, 1-(3-(8-Amino-6-(trifluoromethyl)imidazo[1,2-a]pyrazin-3-yl)-4-methylphenyl)-2-fluorocyclopentan-1-ol trifluoroacetate salt]
100 to 500 nM	< 100 nM	100 to 500 nM	CNC(=O)C1CC1c1cn2c(-c3cc(C(C)(O)C(F)F)ccc3C)cnc2c(N)n1 (stereo not drawn) [Example 76, 2-(8-Amino-3-(5-(1,1-difluoro-2-hydroxypropan-2-yl)-2-methylphenyl)imidazo[1,2-a]pyrazin-6-yl)-N-methylcyclopropane-1-carboxamide]
< 100 nM	< 100 nM	100 to 500 nM	[2H]C([2H])([2H])c1ccc(C(C)(O)C(F)(F)F)cc1-c1cnc2c(N)nc(C(=O)NCC(C)(C)O)cn12 (stereo not drawn) [Example 81, 8-Amino-N-(2-hydroxy-2-methylpropyl)-3-(2-(methyl-d3)-5-(1,1,1-trifluoro-2-hydroxypropan-2-yl)phenyl)imidazo[1,2-a]pyrazine-6-carboxamide]
100 to 500 nM	< 100 nM	< 100 nM	Cc1ccc(C(O)(C(N)=O)C(F)(F)F)cc1-c1cnc2c(N)nc(C(=O)NC3(C4CC4)CCOC3)cn12 (stereo not drawn) [Example 83, 8-Amino-3-(5-(3-amino-1,1,1-trifluoro-2-hydroxy-3-oxopropan-2-yl)-2-methylphenyl)-N-(3-cyclopropyltetrahydrofuran-3-yl)imidazo[1,2-a]pyrazine-6-carboxamide trifluoroacetate salt]

— patent US10738057B2, “Tertiary alcohols as PI3K-γ inhibitors” (Incyte Corporation, priority 2017, dated 2020)
